Test results published in US10604524B2, “Pyrropyrimidine compounds as MNKs inhibitors” (LIFEARC, priority 2015, dated 2020).

Key:
[1] = biological target: PDGFRB (Homo sapiens, UniProt P09619); experiment: Kinase selectivity screen; conditions: read-out: % Inhibition PDGFRB
[2] = biological target: EEF2K (Homo sapiens, UniProt O00418); experiment: Kinase selectivity screen; conditions: read-out: % Inhibition EEF2K
[3] = biological target: ROS1 (Homo sapiens, UniProt P08922); experiment: Kinase selectivity screen; conditions: read-out: % Inhibition ROS1
[4] = biological target: PIP4K2A (Homo sapiens, UniProt P48426); experiment: Kinase selectivity screen; conditions: read-out: % Inhibition PIP4K2A
[5] = biological target: MAPK8 (Homo sapiens, UniProt P45983); experiment: Kinase selectivity screen; conditions: read-out: % Inhibition MAPK8
[6] = biological target: CAMK2B (Homo sapiens, UniProt Q13554); experiment: Kinase selectivity screen; conditions: read-out: % Inhibition CAMK2B
[7] = biological target: PIK3CA (Homo sapiens, UniProt P42336); experiment: Kinase selectivity screen; conditions: read-out: % Inhibition PIK3CA
[8] = biological target: ULK2 (Homo sapiens, UniProt Q8IYT8); experiment: Kinase selectivity screen; conditions: read-out: % Inhibition ULK2
[9] = biological target: PAK1 (Homo sapiens, UniProt Q13153); experiment: Kinase selectivity screen; conditions: read-out: % Inhibition PAK1
[10] = biological target: KDR (Homo sapiens, UniProt P35968); experiment: Kinase selectivity screen; conditions: read-out: % Inhibition KDR
[11] = biological target: EPHB4 (Homo sapiens, UniProt P54760); experiment: Kinase selectivity screen; conditions: read-out: % Inhibition EPHB4
[12] = biological target: PIK3CD (Homo sapiens, UniProt O00329); experiment: Kinase selectivity screen; conditions: read-out: % Inhibition PIK3CD
[13] = biological target: Full-length human MNK2 (Homo sapiens, UniProt Q9HBH9, T379D); experiment: MNK2 biochemical IC50 assay (Caliper mobility shift)
[14] = biological target: ROCK2 (Homo sapiens, UniProt O75116); experiment: Kinase selectivity screen; conditions: read-out: % Inhibition ROCK2
[15] = biological target: DMPK (Homo sapiens, UniProt Q09013); experiment: Kinase selectivity screen; conditions: read-out: % Inhibition DMPK
[16] = biological target: AURKC (Homo sapiens, UniProt Q9UQB9); experiment: Kinase selectivity screen; conditions: read-out: % Inhibition AURKC
[17] = biological target: SRC (Homo sapiens, UniProt P12931); experiment: Kinase selectivity screen; conditions: read-out: % Inhibition SRC
[18] = biological target: CHEK1 (Homo sapiens, UniProt O14757); experiment: Kinase selectivity screen; conditions: read-out: % Inhibition CHEK1
[19] = biological target: PIM2 (Homo sapiens, UniProt Q9P1W9); experiment: Kinase selectivity screen; conditions: read-out: % Inhibition PIM2
[20] = biological target: MARK2 (Homo sapiens, UniProt Q7KZI7); experiment: Kinase selectivity screen; conditions: read-out: % Inhibition MARK2
[21] = biological target: STK17A (Homo sapiens, UniProt Q9UEE5); experiment: Kinase selectivity screen; conditions: read-out: % Inhibition STK17A
[22] = biological target: STK10 (Homo sapiens, UniProt O94804); experiment: Kinase selectivity screen; conditions: read-out: % Inhibition STK10
[23] = biological target: CDK6/CCND3 (Homo sapiens, UniProt Q00534); experiment: Kinase selectivity screen; conditions: read-out: % Inhibition CDK6/CCND3
[24] = biological target: RET (Homo sapiens, UniProt P07949); experiment: Kinase selectivity screen; conditions: read-out: % Inhibition RET
[25] = biological target: JAK2 (Homo sapiens, UniProt O60674); experiment: Kinase selectivity screen; conditions: read-out: % Inhibition JAK2
[26] = biological target: MINK1 (Homo sapiens, UniProt Q8N4C8); experiment: Kinase selectivity screen; conditions: read-out: % Inhibition MINK1
[27] = biological target: FLT1 (Homo sapiens, UniProt P17948); experiment: Kinase selectivity screen; conditions: read-out: % Inhibition FLT1
[28] = biological target: INSR (Homo sapiens, UniProt P06213); experiment: Kinase selectivity screen; conditions: read-out: % Inhibition INSR
[29] = biological target: MAP3K7 (Homo sapiens, UniProt O43318); experiment: Kinase selectivity screen; conditions: read-out: % Inhibition MAP3K7
[30] = biological target: DYRK2 (Homo sapiens, UniProt Q92630); experiment: Kinase selectivity screen; conditions: read-out: % Inhibition DYRK2
[31] = biological target: ABL2 (Homo sapiens, UniProt P42684); experiment: Kinase selectivity screen; conditions: read-out: % Inhibition ABL2
[32] = biological target: FES (Homo sapiens, UniProt P07332); experiment: Kinase selectivity screen; conditions: read-out: % Inhibition FES
[33] = biological target: CSNK2A2 (Homo sapiens, UniProt P19784); experiment: Kinase selectivity screen; conditions: read-out: % Inhibition CSNK2A2
[34] = biological target: EGFR (Homo sapiens, UniProt P00533); experiment: Kinase selectivity screen; conditions: read-out: % Inhibition EGFR

Chain of FLT1 (P17948 27-1338, species assumed): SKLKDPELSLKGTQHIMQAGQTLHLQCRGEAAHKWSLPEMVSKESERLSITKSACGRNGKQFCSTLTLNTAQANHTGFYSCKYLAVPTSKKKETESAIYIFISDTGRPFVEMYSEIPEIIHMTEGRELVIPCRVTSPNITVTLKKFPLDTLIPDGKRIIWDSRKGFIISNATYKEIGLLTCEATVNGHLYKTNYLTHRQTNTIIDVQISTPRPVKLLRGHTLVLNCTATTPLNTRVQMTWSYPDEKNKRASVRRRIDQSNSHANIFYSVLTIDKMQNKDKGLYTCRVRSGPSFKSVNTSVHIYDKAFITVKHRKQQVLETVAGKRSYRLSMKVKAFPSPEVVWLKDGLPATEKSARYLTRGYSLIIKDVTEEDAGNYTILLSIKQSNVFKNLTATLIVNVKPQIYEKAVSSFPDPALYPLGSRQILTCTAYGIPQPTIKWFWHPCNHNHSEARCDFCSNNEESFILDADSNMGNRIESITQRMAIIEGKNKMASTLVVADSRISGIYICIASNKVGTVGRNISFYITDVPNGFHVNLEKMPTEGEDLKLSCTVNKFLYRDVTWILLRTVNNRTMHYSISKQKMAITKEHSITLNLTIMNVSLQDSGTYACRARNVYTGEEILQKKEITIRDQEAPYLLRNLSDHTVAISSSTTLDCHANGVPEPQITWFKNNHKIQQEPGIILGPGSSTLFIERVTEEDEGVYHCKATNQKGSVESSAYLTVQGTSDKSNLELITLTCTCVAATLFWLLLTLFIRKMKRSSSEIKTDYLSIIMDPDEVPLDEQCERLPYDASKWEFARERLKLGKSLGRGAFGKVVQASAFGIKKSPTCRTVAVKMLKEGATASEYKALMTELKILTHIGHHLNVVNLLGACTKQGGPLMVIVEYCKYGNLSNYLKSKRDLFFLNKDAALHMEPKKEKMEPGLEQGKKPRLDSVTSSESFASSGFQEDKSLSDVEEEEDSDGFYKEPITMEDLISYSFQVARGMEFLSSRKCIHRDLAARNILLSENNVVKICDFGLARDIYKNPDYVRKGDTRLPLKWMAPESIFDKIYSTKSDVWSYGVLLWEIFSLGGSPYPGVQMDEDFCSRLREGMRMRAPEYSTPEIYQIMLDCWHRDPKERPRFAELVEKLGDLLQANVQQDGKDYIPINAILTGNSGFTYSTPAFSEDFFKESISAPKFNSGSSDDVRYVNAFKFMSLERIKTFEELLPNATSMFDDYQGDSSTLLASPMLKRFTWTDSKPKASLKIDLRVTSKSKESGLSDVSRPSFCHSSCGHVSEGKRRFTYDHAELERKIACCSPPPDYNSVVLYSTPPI
Chain of PIM2 (Q9P1W9 whole entry, species assumed): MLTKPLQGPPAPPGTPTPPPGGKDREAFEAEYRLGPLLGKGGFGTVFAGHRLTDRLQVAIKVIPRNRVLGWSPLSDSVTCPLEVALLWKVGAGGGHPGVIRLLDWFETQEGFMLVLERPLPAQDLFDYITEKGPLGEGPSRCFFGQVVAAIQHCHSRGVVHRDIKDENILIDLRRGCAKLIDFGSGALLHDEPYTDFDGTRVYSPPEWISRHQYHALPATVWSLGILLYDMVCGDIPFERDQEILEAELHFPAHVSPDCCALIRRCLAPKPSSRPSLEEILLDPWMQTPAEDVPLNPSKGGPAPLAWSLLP
Chain of AURKC (Q9UQB9 whole entry, species assumed): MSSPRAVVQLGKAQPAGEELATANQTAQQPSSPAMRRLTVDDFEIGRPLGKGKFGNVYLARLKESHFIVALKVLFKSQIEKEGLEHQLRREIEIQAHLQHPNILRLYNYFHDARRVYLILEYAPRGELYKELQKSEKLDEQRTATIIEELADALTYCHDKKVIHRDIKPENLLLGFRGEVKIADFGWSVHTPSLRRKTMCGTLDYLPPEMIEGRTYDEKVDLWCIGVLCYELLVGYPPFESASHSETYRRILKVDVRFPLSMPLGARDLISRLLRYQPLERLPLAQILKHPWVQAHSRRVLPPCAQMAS
Chain of KDR (P35968 20-1356, species assumed): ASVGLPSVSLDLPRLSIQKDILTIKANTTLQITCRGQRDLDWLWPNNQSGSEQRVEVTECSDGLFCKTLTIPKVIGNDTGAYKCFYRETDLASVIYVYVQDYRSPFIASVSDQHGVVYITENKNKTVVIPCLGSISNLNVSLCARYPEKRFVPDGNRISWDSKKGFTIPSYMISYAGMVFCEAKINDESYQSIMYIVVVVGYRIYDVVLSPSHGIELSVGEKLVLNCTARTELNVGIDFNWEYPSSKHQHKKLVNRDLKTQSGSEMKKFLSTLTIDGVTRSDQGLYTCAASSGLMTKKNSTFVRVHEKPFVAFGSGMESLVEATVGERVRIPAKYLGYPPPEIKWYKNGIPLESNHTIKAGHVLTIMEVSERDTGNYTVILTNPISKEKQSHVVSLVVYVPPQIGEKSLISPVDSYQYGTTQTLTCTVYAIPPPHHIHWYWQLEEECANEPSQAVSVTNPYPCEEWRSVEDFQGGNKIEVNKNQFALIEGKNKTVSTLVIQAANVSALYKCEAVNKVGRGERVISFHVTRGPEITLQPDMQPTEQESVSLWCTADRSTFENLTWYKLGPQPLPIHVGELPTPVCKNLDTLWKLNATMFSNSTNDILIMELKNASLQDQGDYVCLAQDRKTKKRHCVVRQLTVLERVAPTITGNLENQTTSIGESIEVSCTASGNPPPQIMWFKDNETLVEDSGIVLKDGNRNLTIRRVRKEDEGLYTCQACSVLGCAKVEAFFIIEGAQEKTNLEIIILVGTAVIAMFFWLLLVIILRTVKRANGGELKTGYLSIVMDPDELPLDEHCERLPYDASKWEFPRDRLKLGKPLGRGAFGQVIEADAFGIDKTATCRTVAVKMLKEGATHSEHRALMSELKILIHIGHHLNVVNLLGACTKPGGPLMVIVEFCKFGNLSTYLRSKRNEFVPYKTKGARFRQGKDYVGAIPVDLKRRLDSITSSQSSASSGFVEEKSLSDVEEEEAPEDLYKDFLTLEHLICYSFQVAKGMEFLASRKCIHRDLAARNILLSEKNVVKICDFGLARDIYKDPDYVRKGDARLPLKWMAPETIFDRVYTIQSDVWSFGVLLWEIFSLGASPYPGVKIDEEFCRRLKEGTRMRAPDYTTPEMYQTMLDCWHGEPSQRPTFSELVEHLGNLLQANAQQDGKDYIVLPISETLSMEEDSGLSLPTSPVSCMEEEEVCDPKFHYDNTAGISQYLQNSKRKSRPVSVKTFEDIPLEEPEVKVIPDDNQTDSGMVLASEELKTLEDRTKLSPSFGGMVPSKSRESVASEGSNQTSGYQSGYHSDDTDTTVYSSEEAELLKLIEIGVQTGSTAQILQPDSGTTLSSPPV
Chain of RET (P07949 29-1114, species assumed): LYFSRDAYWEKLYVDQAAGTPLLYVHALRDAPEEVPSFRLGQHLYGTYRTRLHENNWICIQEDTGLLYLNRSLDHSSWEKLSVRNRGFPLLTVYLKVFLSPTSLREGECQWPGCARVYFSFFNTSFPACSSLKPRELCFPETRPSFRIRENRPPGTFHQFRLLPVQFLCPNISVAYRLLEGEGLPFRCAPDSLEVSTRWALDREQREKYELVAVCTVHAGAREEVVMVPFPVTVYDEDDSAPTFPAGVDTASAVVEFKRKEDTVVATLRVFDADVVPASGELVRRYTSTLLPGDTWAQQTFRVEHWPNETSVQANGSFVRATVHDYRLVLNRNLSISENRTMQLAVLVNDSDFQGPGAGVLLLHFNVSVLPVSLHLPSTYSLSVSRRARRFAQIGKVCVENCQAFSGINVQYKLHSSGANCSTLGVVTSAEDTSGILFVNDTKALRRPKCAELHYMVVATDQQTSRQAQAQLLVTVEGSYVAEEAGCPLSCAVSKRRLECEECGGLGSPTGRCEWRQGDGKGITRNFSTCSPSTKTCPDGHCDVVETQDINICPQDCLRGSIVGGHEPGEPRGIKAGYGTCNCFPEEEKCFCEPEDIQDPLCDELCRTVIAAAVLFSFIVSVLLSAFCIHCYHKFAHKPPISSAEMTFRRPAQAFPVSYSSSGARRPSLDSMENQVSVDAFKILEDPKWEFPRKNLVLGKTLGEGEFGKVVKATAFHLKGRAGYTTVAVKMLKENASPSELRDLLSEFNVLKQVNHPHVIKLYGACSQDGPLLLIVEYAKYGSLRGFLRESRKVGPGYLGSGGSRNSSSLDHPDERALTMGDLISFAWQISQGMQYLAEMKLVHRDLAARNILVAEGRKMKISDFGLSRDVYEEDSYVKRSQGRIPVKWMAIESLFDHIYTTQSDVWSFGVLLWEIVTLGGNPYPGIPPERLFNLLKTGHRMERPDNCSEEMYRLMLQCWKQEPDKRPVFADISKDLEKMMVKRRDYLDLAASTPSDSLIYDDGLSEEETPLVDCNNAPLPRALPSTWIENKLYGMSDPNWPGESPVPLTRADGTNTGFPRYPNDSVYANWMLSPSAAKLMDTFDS
Chain of DYRK2 (Q92630 whole entry, species assumed): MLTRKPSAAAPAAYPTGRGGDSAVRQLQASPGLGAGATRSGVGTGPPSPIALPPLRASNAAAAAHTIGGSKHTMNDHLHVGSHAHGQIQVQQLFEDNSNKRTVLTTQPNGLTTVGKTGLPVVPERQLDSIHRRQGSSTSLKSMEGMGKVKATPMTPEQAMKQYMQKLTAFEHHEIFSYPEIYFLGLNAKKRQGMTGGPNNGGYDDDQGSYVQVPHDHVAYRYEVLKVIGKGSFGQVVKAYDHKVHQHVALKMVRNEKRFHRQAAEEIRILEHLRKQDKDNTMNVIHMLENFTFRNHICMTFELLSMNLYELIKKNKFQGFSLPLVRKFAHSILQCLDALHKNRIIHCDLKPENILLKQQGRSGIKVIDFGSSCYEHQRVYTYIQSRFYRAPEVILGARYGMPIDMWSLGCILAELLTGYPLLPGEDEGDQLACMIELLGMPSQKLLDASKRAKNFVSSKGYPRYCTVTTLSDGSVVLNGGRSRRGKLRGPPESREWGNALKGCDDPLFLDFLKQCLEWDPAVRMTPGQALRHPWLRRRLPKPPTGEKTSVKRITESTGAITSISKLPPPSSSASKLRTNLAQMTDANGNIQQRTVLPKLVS

For `CC(C)Oc1cc(F)ccc1Nc1ncnc2cc(C(=O)NCCCN(C)C)n(C)c12` [Example 40, N-[3-(dimethylamino)propyl]-4-{[4-fluoro-2-(propan-2-yloxy)phenyl]amino}-5-methyl-5H-pyrrolo[3,2-d]pyrimidine-6-carboxamide], the inhibition at 1 µM [1] was 5%, the inhibition at 1 µM [2] was 0% and the inhibition at 1 µM [3] was 0%. It also gave an inhibition at 1 µM [4] of 7%, an inhibition at 1 µM [5] of 0% and an inhibition at 1 µM [6] of 14%. For the same compound, the inhibition at 1 µM [7] was 5%, the inhibition at 1 µM [8] was 0% and the inhibition at 1 µM [9] was 0%. The inhibition at 1 µM [10] was 5%, the inhibition at 1 µM [11] was 2% and the inhibition at 1 µM [12] was 2%. For the same compound, the IC50 [13] was 39.8 nM, the inhibition at 1 µM [14] was 0% and the inhibition at 1 µM [15] was 0%. For the same compound, the inhibition at 1 µM [16] was 28%, the inhibition at 1 µM [17] was 0% and the inhibition at 1 µM [18] was 0%. It also gave an inhibition at 1 µM [19] of 0%, an inhibition at 1 µM [20] of 0% and an inhibition at 1 µM [21] of 2%. The inhibition at 1 µM [22] was 0%, the inhibition at 1 µM [23] was 0% and the inhibition at 1 µM [24] was 1%. The inhibition at 1 µM [25] was 0%, the inhibition at 1 µM [26] was 0% and the inhibition at 1 µM [27] was 8%. It also gave an inhibition at 1 µM [28] of 0%, an inhibition at 1 µM [29] of 5% and an inhibition at 1 µM [30] of 8%. The inhibition at 1 µM [31] was 0%, the inhibition at 1 µM [32] was 5% and the inhibition at 1 µM [33] was 0%. It also gave an inhibition at 1 µM [34] of 0%.
